Among the data in PubChem BioAssay AID1397 (The Scripps Research Institute Molecular Screening Center, 2008) are EC50 values, retold here.

Activity calls are given as the source filed them.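 Rule for the calls: active = potency EC50 for STAT1 activation at or below 10 micromolar; inactive = EC50 above 10 micromolar.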

In the first assay the test system is NIH 3T3 STAT1-luciferase reporter, luminescence. Briefly: STAT1 signalling activators, dose response, cell-based, NIH 3T3, luciferase luminescence (AID 1397).
Details: not given
As to `Nc1ccccc1C(=O)OCC(=O)N1CCc2ccccc21`, the concentration giving a half-maximal response (EC50) was 2220 nM.

For the compound `CC(=O)Nc1ccccc1C(=O)OCc1cccc(F)c1`, the concentration giving a half-maximal response (EC50) was 3020 nM.

The assay is the same for the next values; noted with them: cells stimulated with IFN-gamma at EC80.
For the compound `CN(C)c1nc(N)nc(CSc2nc3cc(Cl)ccc3o2)n1`, the EC50 was 18600 nM (inactive).

With `CCCCCNc1nc(-c2ccccc2)cs1`, the EC50 was 851 nM.

With `COc1ccc2c(c1)oc(=O)c1cc(OC)ccc12`, the EC50 was 4280 nM.

As to `O=C(CCc1nnc(CCCc2ccccc2)o1)N1CCCCCC1`, the EC50 was 7830 nM.

Take `COc1ccc(Nc2oc(-c3cccs3)nc2C#N)cc1`: the EC50 is 3220 nM.

As for `CCCCOC(=O)Nc1nc2ccccc2s1`, the 50% effective concentration (EC50) was 741 nM.

Consider `CC(C)Oc1ccc2c(=O)c(-c3ccccc3)coc2c1`, for which the 50% effective concentration (EC50) is 418 nM.

With `Nc1ccc2nn(-c3ccccc3)nc2c1`, the half-maximal effective concentration (EC50) is 1350 nM.

In the case of `CCCOC(=O)c1ccc(-c2ccc(C=O)o2)cc1`, the concentration for a half-maximal effect (EC50) is 436 nM.

For the compound `CCOC(=O)/C(C#N)=C/c1cc(C)n(-c2ccccc2)c1C`, the EC50 is 69 nM.

As to `COc1ccc2nc(Nc3nc(C)c(C(C)=O)s3)sc2c1`, the EC50 was 2120 nM.

On to `CCc1ccc(Nc2ncc3c(n2)CC(C)CC3=O)cc1` (stereo unspecified), for which the EC50 was 751 nM.

For `CC(C)=CC(=O)Nc1nc2ccc([N+](=O)[O-])cc2s1`, the EC50 is 3130 nM.

`O=C(NC(=S)Nc1ccc(F)cc1)c1ccc2c(c1)OCCO2`: the EC50 was 1000 nM.

Turning to `Fc1ccc2nc(Nc3nc4cc5c(cc4s3)OCCO5)sc2c1`, the concentration for a half-maximal effect (EC50) was 1290 nM.

Consider `COc1ccc(-c2cc3ncc(-c4ccccc4)c(N)n3n2)cc1`, for which the EC50 was 1210 nM.

With `CCc1ccc(NC(=O)N2CCC(c3ccccc3)C2)cc1` (stereo unspecified), the concentration giving a half-maximal response (EC50) was 1370 nM.

For the compound `CC(=O)NC(=S)Nc1sc2c(c1C#N)CCCCC2`, the EC50 was > 76 nM (inactive).

As to `CC(=O)COc1ccc2c(C)c(-c3ccccc3)c(=O)oc2c1`, the EC50 is 31500 nM (inactive).

For the compound `CCOC(=O)c1sc(NC(=O)c2sccc2C)cc1C`, the EC50 is 233 nM.

With `O=C(/C=C/Nc1ccc(F)cc1)c1ccc(Br)cc1`, the EC50 is 431 nM.

Take `CCOC(=O)c1cnc2c(-c3ccccc3)cnn2c1N`: the EC50 is 229 nM.

Regarding `O=C(/C=C/c1cccc(F)c1)N1CCc2ccccc21`, the EC50 is 210 nM.

Regarding `O=C(/C(C=Nc1ccc(Br)cc1)=C(/O)c1ccco1)C(F)(F)F`, the EC50 is > 685 nM (inactive).

As for `Cc1ccc(C(=O)N2CCc3ccccc32)o1`, the EC50 was > 687 nM (inactive).

Regarding `Cc1nnc(SCC(=O)Nc2ccc(-c3nc4ccccc4s3)cc2)s1`, the EC50 was 93 nM.

In the case of `N#C/C(=C\c1ccc(N2CCOCC2)o1)c1nc2ccccc2[nH]1`, the EC50 was > 76 nM (inactive).

`CC(C)(C)N=C1NN=C(c2cc3ccccc3o2)CS1`: the concentration giving a half-maximal response (EC50) is 825 nM.

`CC(=O)Nc1cccc(-c2cnc3ccccc3n2)c1`: the EC50 was 3860 nM.

Consider `Cc1ncsc1C(=O)Nc1nc2c(s1)CCCC2`, for which the EC50 is 2680 nM.

`C=CCNc1nc(-c2cc3ccccc3o2)cs1`: the EC50 is > 764 nM (inactive).

As to `c1ccc(CNc2ccc3ccccc3n2)nc1`, the EC50 was > 687 nM (inactive).

In the case of `c1cncc(-c2nc3cc4ccccc4cc3[nH]2)c1`, the 50% effective concentration (EC50) was 331 nM.

Take `COc1ccc(-c2nc3ccc([N+](=O)[O-])cc3[nH]2)cc1`: the EC50 is 126 nM.

For `CCOCC(=O)Nc1nc2ccc(OCC)cc2s1`, the EC50 is > 55700 nM (inactive).

As to `Fc1ccccc1CSc1nnc(-c2cccnc2)o1`, the concentration giving a half-maximal response (EC50) was 4520 nM.

`CC(=O)c1cccc(NC(=S)NC(=O)c2cccc(C)c2)c1`: the concentration giving a half-maximal response (EC50) was 1890 nM.

Regarding `CCOC(=O)c1ccc2nc(NC(C)=O)sc2c1`, the half-maximal effective concentration (EC50) is 2540 nM.

As for `Cc1ccc(/C=C/C(=O)N2CCCC(C)C2)cc1` (stereo unspecified), the EC50 is > 687 nM (inactive).

Regarding `O=C(Cn1cnc2ccccc2c1=O)c1ccc(Cl)cc1`, the concentration giving a half-maximal response (EC50) is 8040 nM.

With `O=C(OCc1csc(-c2ccccc2)n1)c1cccs1`, the EC50 is > 687 nM (inactive).

On to `COc1cc(NC(=O)c2csc3c2CCCC3)ncn1`, for which the EC50 was 1210 nM.

Turning to `COc1ccc(/C=C/C(=O)Nc2ccccc2)cc1OC`, the EC50 was 5130 nM.

On to `Cc1nc(-c2ccc(NC(=O)c3ccccc3C)cc2)cs1`, for which the EC50 is 1840 nM.

On to `CCNc1nc(-c2cc3ccccc3o2)cs1`, for which the EC50 is 179 nM.

For `CCN(CC)c1ccc2cc(C(=O)Nc3ccccn3)c(=O)oc2c1`, the EC50 was > 76 nM (inactive).

As to `Cc1ccc(-c2cc3nc(C)cc(NCc4ccco4)n3n2)cc1`, the EC50 was 3430 nM.

As for `CCC(C)NC(=O)c1cc(-c2ccc(OC)cc2)on1` (stereo unspecified), the EC50 was 1300 nM.

Regarding `NC(=O)Cc1ccc2sc(-c3ccccc3)nc2c1`, the half-maximal effective concentration (EC50) is 463 nM.

On to `Cc1ccc(NC(=O)Nc2ccc3oc(C)nc3c2)cc1`, for which the concentration for a half-maximal effect (EC50) was 1650 nM.

Take `Cc1cc(C(=O)NCCC2=CCCCC2)c(C)o1`: the EC50 was > 229 nM (inactive).

`Cc1nc(-c2ccc(NC(=O)c3ccccc3Br)cc2)cs1`: the 50% effective concentration (EC50) was 2600 nM.

In the case of `Cc1nc2ccc(-c3nc4ccccc4o3)cc2[nH]1`, the 50% effective concentration (EC50) is 356 nM.

Regarding `O=C(O)c1ccccc1C(=O)Nc1ccc(-c2csc(-c3ccccc3)n2)cc1`, the EC50 is 3880 nM.

Consider `Clc1ccc(-n2ncc3c(NCC4CCCO4)ncnc32)cc1` (stereo unspecified), for which the EC50 is 409 nM.

Take `O=C(/C=C/c1ccccc1)Nc1ccc(Cl)cn1`: the concentration giving a half-maximal response (EC50) is 669 nM.

Regarding `Cc1ccc(/C=C/C(=O)Nc2ccccc2C(N)=O)cc1`, the EC50 is > 687 nM (inactive).

With `COc1ccc2[nH]c3c(c2c1)CCn1c-3nc2ccccc2c1=O`, the EC50 is > 76 nM (inactive).

For the compound `COc1ccc(N/C=C\C(=O)c2ccc3c(c2)OCO3)cc1OC`, the EC50 was 2860 nM.

As to `COc1ccc(-c2cc(C)nc3c(-c4ccccc4)cnn23)cc1`, the EC50 is > 76 nM (inactive).

For `O=C(Nc1ccc(-c2nc3cccnc3s2)cc1)c1ccco1`, the EC50 is 341 nM.

On to `Clc1ccc(-n2ncc3c(N4CCCC4)ncnc32)cc1`, for which the EC50 is > 55700 nM (inactive).

As to `COc1ccc(-c2csc(N3C(=O)CNC3=S)n2)cc1`, the EC50 is 87 nM.

For the compound `Cc1nc2ccc3nc(NC(=O)c4ccco4)sc3c2s1`, the EC50 is 11000 nM (inactive).

In the case of `C=CCNC(=S)NNC(=O)COc1ccc2cc(Br)ccc2c1`, the EC50 was 3040 nM.

On to `COc1cccc(NC(=O)Nc2ccc(C(C)(C)C)cc2)c1`, for which the EC50 was 2810 nM.

Regarding `C=CCn1c(C)cc(C(=O)CSc2nc3ccccc3o2)c1C`, the EC50 was > 229 nM (inactive).

In the case of `C/C(=C\c1ccccc1)C(=O)Nc1nccs1`, the EC50 is 2090 nM.

Consider `Cc1occc1C(=O)Nc1ccc2c(c1)CCC2`, for which the EC50 was 1600 nM.

As to `C=CCNC(=O)c1cc(-c2ccc(Br)cc2)on1`, the EC50 was 832 nM.

With `CC(=O)Nc1ccc(-c2csc(Nc3cccc(C)n3)n2)cc1`, the EC50 is 1650 nM.

Consider `CN(C)c1ccnc2sc(C(=O)c3ccccc3)c(N)c12`, for which the EC50 is 1970 nM.

For `Cc1ccc(-c2cnc(-c3ccncc3)o2)cc1`, the EC50 was 3300 nM.

As for `O=C(Nc1nccs1)c1ccc(-c2ccc([N+](=O)[O-])cc2)o1`, the concentration for a half-maximal effect (EC50) is 1220 nM.

With `O=C(Nc1cccc(Cl)c1)c1ccc2c(=O)n3c(nc2c1)CCCCC3`, the EC50 was 811 nM.

For the compound `O=C(NC(=S)Nc1ccccn1)c1ccc([N+](=O)[O-])cc1`, the EC50 was 525 nM.

As for `CCOc1ccc2nc(N3CCOCC3)nc(C)c2c1`, the EC50 was 2300 nM.

`CN1C(=O)/C(=C/C=C2\SCCN2C)SC1=S`: the 50% effective concentration (EC50) was 420 nM.

Turning to `CN(C)c1ccc(C(=O)OCC(=O)c2cccs2)cc1`, the EC50 is > 687 nM (inactive).

Take `c1csc(C2=NNC(=NC3CCCCC3)SC2)c1`: the EC50 was > 688 nM (inactive).

Consider `O=C(/C=C/c1ccc(F)cc1)Nc1nc2ccccc2[nH]1`, for which the concentration for a half-maximal effect (EC50) is 920 nM.

Consider `O=C(/C=C/Nc1ccccc1F)c1ccc(Br)cc1`, for which the EC50 was > 76 nM (inactive).

As for `O=C(/C=C/c1ccco1)Nc1ccccn1`, the EC50 is > 687 nM (inactive).

Turning to `Nc1ncc(-c2cc3ccccc3oc2=O)s1`, the EC50 was > 687 nM (inactive).

For `O=C(/C(C=Nc1ccc(F)cc1)=C(/O)c1ccco1)C(F)(F)F`, the EC50 is > 687 nM (inactive).

Turning to `Cc1ccc(C(=O)Nc2nc3c(s2)CCCC3)o1`, the EC50 is > 229 nM (inactive).

For `Cc1ccc(-c2cc(N)n(-c3ccccc3)n2)cc1`, the 50% effective concentration (EC50) was 3000 nM.

For the compound `CCOC(=O)CSc1nc(-c2ccncc2)ccc1C#N`, the EC50 was 1200 nM.

On to `Cc1cccc(Nc2n[nH]c(C)c2[N+](=O)[O-])c1`, for which the half-maximal effective concentration (EC50) was 1240 nM.

With `Cc1ccc(C(=O)/C=C/Nc2cccc([N+](=O)[O-])c2)o1`, the EC50 was 1380 nM.

Take `Nc1ccc2oc(-c3ccccc3Cl)nc2c1`: the EC50 is > 229 nM (inactive).

As to `O=[N+]([O-])c1ccccc1OCCCn1cnc2ccccc21`, the 50% effective concentration (EC50) was 1500 nM.

Take `O=C(Nc1ccc2c(c1)OCCO2)c1ccc(Br)s1`: the EC50 is > 229 nM (inactive).

Consider `COc1cccc(N/C=C/C(=O)c2ccc(Cl)cc2)c1`, for which the EC50 was 114 nM.

Take `Nc1nc2ccc(-c3nc4ccccc4o3)cc2s1`: the EC50 was 516 nM.

`COc1ccc(NC(=S)Nc2ccc3nccnc3c2)cc1`: the EC50 was 13300 nM (inactive).

As to `Cc1ccc2nc(NC(=O)CCn3cccc3)sc2c1`, the EC50 is 6940 nM.

Consider `O=C(NCCC1=CCCCC1)c1ccc(F)cc1`, for which the EC50 was > 687 nM (inactive).

For `COc1ccc2nc(Nc3ccc4c(c3)OCO4)sc2c1`, the concentration for a half-maximal effect (EC50) is 3070 nM.

As to `O=C(c1ccccc1)c1ccc(N2CCCC2)cc1`, the EC50 is 1970 nM.

For `Nc1ccccc1Nc1cc(-c2ccccc2)[nH]n1`, the EC50 is 2720 nM.

As for `Cc1ccc(C(=O)Nc2nc3ccccc3s2)s1`, the EC50 is > 76 nM (inactive).

`CCc1c(C)[nH]c(C(=O)OCc2ccccc2)c1C`: the EC50 is 6910 nM.

`CC(=O)c1cccc(N/C=C\C(=O)c2ccc(C)cc2)c1`: the EC50 was > 687 nM (inactive).
